Key:
Type in all cases: physicochemical
[1] = Photostability of solid powder (1×ICH dose UV and visible light), HPLC; settings: for degradation: 1×ICH dose, clear glass vials
Procedure: (§1) High performance liquid chromatography (HPLC) analyses were performed on an Agilent 1100 or 1200 series HPLC equipped with a binary pump, diode-array detector, thermostated column compartment, and auto sampler. Separation and elution was achieved using a reverse-phase column and 0.1% triflouroacetic acid/water/acetonitrile mobile phase.
As shown in the table below minimal degradation, 0.4% and 0.2%, was detected in samples in clear glass vials under UV and visible light, respectively.

[2] = Dynamic vapor sorption / moisture sorption
Procedure: Moisture sorption data was collected using a Surface Measurement Systems DVS-Advantage instrument. Equilibrium criteria were set at ±0.002% weight change in 5 minutes with a maximum equilibrium time of 360 minutes.

[3] = Equilibrium solubility in water and aqueous media; settings: water, 22.5 °C, thermodynamic from solid
[4] = Equilibrium solubility in water and aqueous media; settings: 22.5 °C, thermodynamic from solid
Procedure: In all studies, excess solid of the compound was allowed to equilibrate at a temperature in the range of about 20 to 25° C. for 12-48 hours while stirring.

[5] = Solubility in organic solvents; settings: 20 °C, thermodynamic from solid, 20 to 25° C., at least 12 hours
Procedure: In all studies, excess solid of the compound was allowed to equilibrate for at least 12 hours while stirring.

[6] = Solid state stability under accelerated stability testing conditions, HPLC
Procedure: as §1
Solid samples of the free base monohydrate form of Compound M were placed under accelerated stability testing conditions (25° C./60% RH, 40° C./75% RH and 60° C./ambient RH) for 12 weeks.

[7] = Visible (1200 klux × h), Amber vial
[8] = Visible (1200 klux × h), Clear vial

With COCCOc1cnc2ccn([C@H](C)c3nnc4c(F)cc(-c5cnn(C)c5)cn34)c(=O)c2c1 [free base monohydrate form of Compound M, 6-{(1R)-1-[8-fluoro-6-(1-methyl-1H-pyrazol-4-yl)[1,2,4]triazolo[4,3-a]pyridin-3-yl]ethyl}-3-(2-methoxyethoxy)-1,6-naphthyridin-5(6H)-one] the chemical degradation ([1]; 1×ICH dose for UV and visible light, amber glass vials) was “no chemical degradation”, the “Area % (215 nm), peak No MS signal, RRT 0.80” value ([1]; UV (200 W × h/m^2), Amber vial) was less than 0.01 Area % and the “Area % (215 nm), peak m/z 390, RRT 0.84” value ([1]; UV (200 W × h/m^2), Amber vial) was 0.06 Area %. For the same compound, the “Area % (215 nm), peak m/z 520 [M + Na]^+, RRT 0.83” value (from here on “Area % (215 nm) … RRT 0.83”) ([1]; UV (200 W × h/m^2), Amber vial) was less than 0.01 Area %, the “Area % (215 nm), peak m/z 581, RRT 0.82” value ([1]; UV (200 W × h/m^2), Amber vial) was less than 0.01 Area % and the “Area % (215 nm), peak m/z 638, RRT 1.16” value ([1]; UV (200 W × h/m^2), Amber vial) was 0.05 Area %. The “Area % (215 nm), peak monohydrate, RRT 1.00” value (from here on “Area % (215 nm) … RRT 1.00”) ([1]; UV (200 W × h/m^2), Amber vial) was 99.89 Area %, the “Total Impurities, Area % (215 nm)” value ([1]; UV (200 W × h/m^2), Amber vial) was 0.11 Area % and the “Area % (215 nm), peak No MS signal, RRT 0.80” value ([1]; UV (200 W × h/m^2), Clear vial) was 0.02 Area %. The “Area % (215 nm), peak m/z 390, RRT 0.84” value ([1]; UV (200 W × h/m^2), Clear vial) was 0.19 Area %, the “Area % (215 nm) … RRT 0.83” value ([1]; UV (200 W × h/m^2), Clear vial) was 0.06 Area % and the “Area % (215 nm), peak m/z 581, RRT 0.82” value ([1]; UV (200 W × h/m^2), Clear vial) was 0.05 Area %. For the same compound, the “Area % (215 nm), peak m/z 638, RRT 1.16” value ([1]; UV (200 W × h/m^2), Clear vial) was 0.04 Area %, the “Area % (215 nm) … RRT 1.00” value ([1]; UV (200 W × h/m^2), Clear vial) was 99.64 Area % and the “Total Impurities, Area % (215 nm)” value ([1]; UV (200 W × h/m^2), Clear vial) was 0.36 Area %. For the same compound, the degradation ([1]; UV light) was 0.4%, the “Area % (215 nm), peak No MS signal, RRT 0.80” value [1, 7] was less than 0.01 Area % and the “Area % (215 nm), peak m/z 390, RRT 0.84” value [1, 7] was 0.05 Area %. The “Area % (215 nm) … RRT 0.83” value [1, 7] was less than 0.01 Area %, the “Area % (215 nm), peak m/z 581, RRT 0.82” value [1, 7] was less than 0.01 Area % and the “Area % (215 nm), peak m/z 638, RRT 1.16” value [1, 7] was 0.05 Area %. The “Area % (215 nm) … RRT 1.00” value [1, 7] was 99.89 Area %, the “Total Impurities, Area % (215 nm)” value [1, 7] was 0.11 Area % and the “Area % (215 nm), peak No MS signal, RRT 0.80” value [1, 8] was less than 0.01 Area %. The “Area % (215 nm), peak m/z 390, RRT 0.84” value [1, 8] was 0.13 Area %, the “Area % (215 nm) … RRT 0.83” value [1, 8] was less than 0.01 Area % and the “Area % (215 nm), peak m/z 581, RRT 0.82” value [1, 8] was less than 0.01 Area %. For the same compound, the “Area % (215 nm), peak m/z 638, RRT 1.16” value [1, 8] was 0.04 Area %, the “Area % (215 nm) … RRT 1.00” value [1, 8] was 99.83 Area % and the “Total Impurities, Area % (215 nm)” value [1, 8] was 0.17 Area %. For the same compound, the degradation ([1]; visible light) was 0.2%, the total weight gain ([2]; between about 40% and about 90% relative humidity) was “about 0.2 wt. %” and the hygroscopicity ([2]; dynamic vapor sorption) was “non-hygroscopic”. The solubility at 138 h ([3]; pH 4.09, water, Sample 2, duration 138 h, isolation method 1, pH 4.09, about 20 to 25° C.) was 0.259 mg/mL, the solubility at 69 h ([3]; pH 6.85, water, Sample 3, duration 69 h, isolation method 2, pH 6.85, about 20 to 25° C.) was 0.262 mg/mL and the solubility ([4]; 0.01N HCl, pH 1.9, simulated gastric fluid, 0.01N HCl, pH 1.9, 20 to 25° C., 12-48 hours, read-out: Solubility) was 0.35 mg/mL. For the same compound, the solubility ([4]; FaSIF, pH 6.8, fassif, FaSIF, pH 6.8, 20 to 25° C., 12-48 hours, read-out: Solubility) was 0.44 mg/mL, the solubility ([4]; PBS, pH 6.9, aqueous buffer, PBS, pH 6.9, 20 to 25° C., 12-48 hours, read-out: Solubility) was 0.18 mg/mL and the solubility ([4]; SGF, pH 2.1, aqueous with cosolvent or surfactant or cyclodextrin, SGF (0.25% (w/v) SDS 0.2% (w/v) NaCl in 0.01N HCl), pH 2.1, 20 to 25° C., 12-48 hours, read-out: Solubility) was 1.44 mg/mL. The solubility ([4]; aqueous medium, pH adjusted with HCl, pH 0.73, aqueous buffer, pH 0.73 (adjusted with HCl), read-out: solubility) was 9.74 mg/mL, the solubility ([4]; aqueous medium, pH adjusted with methane sulfonic acid, pH 0.8, aqueous buffer, pH 0.80 (adjusted with methane sulfonic acid), read-out: solubility) was 12.4 mg/mL and the solubility at 40 h ([4]; water, pH 4.7, water, Sample 1, duration 40 h, isolation method 1, pH 4.70, about 20 to 25° C.) was 0.253 mg/mL. The solubility ([4]; water, water, water, pH about 4 to about 7, about 20° C. to about 25° C., read-out: aqueous solubility) was 0.26 mg/mL, the solubility ([5]; aqueous with cosolvent or surfactant or cyclodextrin, 25% Dimethyl sulfoxide in water, solid form: monohydrate) was 0.59 mg/mL and the solubility ([5]; aqueous with cosolvent or surfactant or cyclodextrin, 50% Dimethyl sulfoxide in water, solid form: monohydrate) was 1.02 mg/mL. It also gave a solubility ([5]; aqueous with cosolvent or surfactant or cyclodextrin, 75% Dimethyl sulfoxide in water, solid form: monohydrate) of 8.45 mg/mL, a solubility ([5]; organic solvent or mixture, Acetonitrile, solid form: monohydrate (extra peak observed)) of 127 mg/mL and a solubility ([5]; organic solvent or mixture, Ethanol, solid form: monohydrate) of 29.7 mg/mL. It also gave a solubility ([5]; organic solvent or mixture, Ethyl Acetate, solid form: monohydrate) of 20.1 mg/mL, a solubility ([5]; organic solvent or mixture, Isopropanol, solid form: monohydrate) of 8.8 mg/mL and a solubility ([5]; organic solvent or mixture, Methanol, solid form: monohydrate) of 53.9 mg/mL. For the same compound, the solubility ([5]; organic solvent or mixture, Methyl Ethyl Ketone, solid form: monohydrate + trace acetone solvate) was 45.8 mg/mL, the solubility ([5]; organic solvent or mixture, Toluene, solid form: monohydrate) was 1.9 mg/mL and the “changes in solid state properties” value ([6]; 25° C./60% RH, 40° C./75% RH and 60° C./ambient RH for 12 weeks) was “no changes in solid state properties were observed”. The “Area % (215 nm), peak 2, RRT 1.09” value ([6]; Initial) was less than 0.1 Area %, the “Area % (215 nm), peak 3, RRT 1.25” value ([6]; Initial) was less than 0.1 Area % and the “Area % (215 nm), peak 4, RRT 1.53” value ([6]; Initial) was less than 0.1 Area %. For the same compound, the “Area % (215 nm) … RRT 1.00” value ([6]; Initial) was 100.0 Area %, the “Total Impurities, Area % (215 nm)” value ([6]; Initial) was less than 0.1 Area % and the “Area % (215 nm), peak 2, RRT 1.09” value ([6]; Week 2, 25/60) was 0.27 Area %.
